Laboratory results: patent US10618902B2, “Substituted pyrido[2,3-d]pyrimidines as inhibitors of protein kinases” (Celgene CAR LLC, priority 2013, dated 2020)
Read-outs that look alike come from different tables or passages of the source.

Columns and labels:
pFGFR4 (Huh7 cells) = pFGFR4 (Huh7 cells) (Homo sapiens (Human), UniProt P22455); assay: FGFR4 signaling (pFGFR4) in Huh7 cells (MSD); type: cell-based; details: read-out: Signaling EC50 (nM) pFGFR4 (Huh)
FGFR4-WT = FGFR4-WT (Homo sapiens (Human), UniProt P22455); assay: Omnia assay for potency against FGFR4 enzyme; type: biochemical; details: method a: FGFR4-WT (Invitrogen) 10 nM, ATP 300 uM, Y10-Sox 10 uM
Description: A 10× stock solution of FGFR4-WT (PR4380C or P3054), (from Invitrogen, Carlsbad, Calif.) corresponding to method a in Table 10, was prepared as described below. Alternatively, a 10× stock solution of FGFR4-WT (F01-11G), (SignalChem, Richmond, BC) corresponding to method b in Table 10, was prepared as described below. A solution of 1.4×ATP (AS001A) and 5× Tyr-Sox conjugated peptide substrate (KNZ3101) were prepared in 1× kinase reaction buffer consisting of 20 mM Tris, pH 7.5, 5 mM MgCl2, 1 mM EGTA, 5 mM […], 5% glycerol (10× stock, KB002A) and 0.2 mM DTT (DS001A). […] The serially diluted compounds were prepared on a Tecan EVO100. A second addition of 10 μl of Tyr-Sox FGFR4 substrate was added to each well and the kinase reactions were started with the addition of 35 μL of 1.4×ATP. The reactions were monitored every 71 seconds for 240 minutes at λex360/λem485 in a Synergy plate reader from BioTek (Winooski, Vt.). […] Methods:
a) [FGFR4-WT]=10 nM, [ATP]=300 uM, [Y10-Sox]=10 uM (ATP KMapp−300 uM),

Huh7 cells = assay: Cell proliferation, Huh7 (CellTiter Glo); type: cell-based
Description: (§1) The growth inhibition (GI50) values were determined by Graph Pad Prism.

MDA-MB-453 cells = assay: Cell proliferation, MDA-MB-453 (CellTiter Glo); type: cell-based; details: 96 hr
Description: as §1

[1] = 120 hr, read-out: Cell Proliferation GI50 (nM) HUH

Chain of pFGFR4 (Huh7 cells) (P22455 22-802): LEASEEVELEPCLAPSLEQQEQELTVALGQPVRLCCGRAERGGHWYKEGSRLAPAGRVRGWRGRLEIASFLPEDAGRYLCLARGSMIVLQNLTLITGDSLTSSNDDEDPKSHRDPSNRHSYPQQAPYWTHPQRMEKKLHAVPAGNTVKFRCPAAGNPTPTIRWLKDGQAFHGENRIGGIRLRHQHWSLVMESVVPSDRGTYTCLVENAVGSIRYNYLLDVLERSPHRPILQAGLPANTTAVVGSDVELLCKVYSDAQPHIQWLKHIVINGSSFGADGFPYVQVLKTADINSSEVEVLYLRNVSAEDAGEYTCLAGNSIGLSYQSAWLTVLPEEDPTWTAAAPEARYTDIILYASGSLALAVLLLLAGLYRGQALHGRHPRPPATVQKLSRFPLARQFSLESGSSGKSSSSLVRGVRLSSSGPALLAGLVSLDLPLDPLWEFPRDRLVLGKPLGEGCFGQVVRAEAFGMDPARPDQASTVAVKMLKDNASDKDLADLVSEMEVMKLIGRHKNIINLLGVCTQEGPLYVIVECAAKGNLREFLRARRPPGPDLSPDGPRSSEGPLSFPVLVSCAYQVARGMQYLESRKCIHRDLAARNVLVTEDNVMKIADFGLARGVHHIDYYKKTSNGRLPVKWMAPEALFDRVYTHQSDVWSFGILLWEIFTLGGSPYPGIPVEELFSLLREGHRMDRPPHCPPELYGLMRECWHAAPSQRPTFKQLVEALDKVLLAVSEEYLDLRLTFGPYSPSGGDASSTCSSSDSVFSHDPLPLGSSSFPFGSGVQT
Chain of FGFR4-WT (P22455 22-802): as above

Row | SMILES | EC50 (pFGFR4 (Huh7 cells)) [nM] | IC50 (FGFR4-WT) [µM] | GI50 (Huh7 cells; Homo sapiens, Huh-7, 120 hr) [nM] | GI50 (MDA-MB-453 cells; Homo sapiens) [nM] | GI50 (MDA-MB-453 cells) [nM] | GI50 (Huh7 cells; [1]) [nM]
1 | C=CC(=O)N[C@H]1COC[C@H]1Nc1ncc2cc(-c3c(Cl)c(OC)cc(OC)c3Cl)c(=O)n(C[C@@H]3CCN(C(C)=O)C3)c2n1 [Compound I-307] | < 100 | < 0.1 | 101 to 500 |  |  | 
2 | C=CC(=O)N[C@H]1COC[C@H]1Nc1ncc2cc(-c3c(F)c(OC)cc(OC)c3F)c(=O)n(C)c2n1 [Compound I-281] |  |  | < 100 | 101 to 500 |  | 
3 | C=CC(=O)Nc1cc(-c2cnn(C)c2)ccc1Nc1ncc2cc(-c3c(Cl)c(OC)cc(OC)c3Cl)c(=O)n(C)c2n1 [Compound I-264] | < 100 | < 0.1 |  |  |  | 
4 | C=CC(=O)Nc1cccc(F)c1Nc1ncc2cc(-c3c(Cl)c(OC)cc(OC)c3Cl)c(=O)n(C)c2n1 [Compound I-259] | < 100 | < 0.1 | 101 to 500 |  |  | 
5 | C#CC(=O)N[C@H]1COC[C@H]1Nc1ncc2cc(-c3c(Cl)c(OC)cc(OC)c3Cl)c(=O)n(C)c2n1 [Compound I-251] | < 100 | < 0.1 |  |  |  | 
6 | C=CC(=O)N[C@H]1COC[C@H]1Nc1ncc2cc(-c3c(Cl)c(OC)cc(OC)c3Cl)c(=O)n(C(C)C)c2n1 [Compound I-296] | < 100 | < 0.1 |  |  |  | 
7 | C=CC(=O)N[C@H]1COC[C@H]1Nc1ncc2cc(-c3c(Cl)c(OC)cc(OC)c3Cl)c(=O)[nH]c2n1 [Compound I-290] | < 100 | < 0.1 | < 100 |  |  | 
8 | C=CC(=O)N[C@@H]1CN(c2cc[nH]n2)C[C@@H]1Nc1ncc2cc(-c3c(Cl)c(OC)cc(OC)c3Cl)c(=O)n(C)c2n1 [Compound I-293] | 101 to 500 | 0.101 to 0.5 |  |  |  | 
9 | C=CC(=O)Nc1ccccc1Nc1ncc2cc(-c3c(Cl)c(OC)cc(OC(F)F)c3Cl)c(=O)n(C)c2n1 [Compound I-289] | < 100 | < 0.1 |  |  | < 100 | 501 to 999
10 | C=CC(=O)Nc1cc(N2CCN(CC)CC2)ccc1Nc1ncc2cc(-c3c(Cl)c(OC)cc(OC)c3Cl)c(=O)n(C)c2n1 [Compound I-269] | < 100 | < 0.1 | 101 to 500 | < 100 |  | 
11 | C=CC(=O)NC1CC(O)CC1Nc1ncc2cc(-c3c(Cl)c(OC)cc(OC)c3Cl)c(=O)n(C)c2n1 (stereo not shown) [Compound I-284] | 101 to 500 | < 0.1 |  |  |  | 
12 | C=CC(=O)Nc1nc(C)ccc1Nc1ncc2cc(-c3c(Cl)c(OC)cc(OC)c3Cl)c(=O)n(C)c2n1 [Compound I-278] | < 100 | < 0.1 |  |  |  | 
13 | C=CS(=O)(=O)N[C@H]1CCC[C@H]1Nc1ncc2cc(-c3c(Cl)c(OC)cc(OC)c3Cl)c(=O)n(C)c2n1 [Compound I-253] | < 100 | < 0.1 |  |  |  | 
14 | C=CC(=O)N[C@H]1COC[C@H]1Nc1ncc2cc(-c3cc(C(=O)Nc4cccc(C(C)(C)C)c4)ccc3Cl)c(=O)n(C)c2n1 [Compound I-265] | < 100 | < 0.1 |  |  |  | 
15 | C=CC(=O)N[C@H]1COC[C@H]1Nc1ncc2cc(-c3cc(OC)cc(OC)c3Cl)c(=O)nc-2n1C [Compound I-306] | < 100 | < 0.1 |  |  |  | 
16 | C=CC(=O)NC1CC(F)(F)CC1Nc1ncc2cc(-c3c(Cl)c(OC)cc(OC)c3Cl)c(=O)n(C)c2n1 (stereo not shown) [Compound I-288] | < 100 | < 0.1 |  |  |  | 
17 | C=CC(=O)N[C@H]1COC[C@H]1Nc1ncc2cc(-c3c(Cl)c(OC)cc(OC)c3Cl)c(=O)n(CCOC)c2n1 [Compound I-295] | < 100 | < 0.1 |  |  |  | < 100
18 | C=CC(=O)N[C@H]1COC[C@H]1Nc1ncc2cc(-c3cc(OC)cc(OC)c3Cl)c(=O)nc-2n1C[C@H]1CCN(C(C)=O)C1 [Compound I-301] | < 100 | < 0.1 |  |  |  | < 100
19 | C=CC(=O)N[C@H]1COC[C@H]1Nc1ncc2cc(-c3c(Cl)c(OC)cc(OC)c3Cl)c(=O)nc-2n1CCO [Compound I-303] | < 100 | < 0.1 |  |  |  | 101 to 500
20 | C=CC(=O)N[C@H]1COC[C@H]1Nc1ncc2cc(-c3c(F)c(OC)cc(OC)c3Cl)c(=O)n(C)c2n1 [Compound I-279] |  |  | < 100 | < 100 |  | 
21 | C=CC(=O)Nc1cc(-c2nnnn2C)ccc1Nc1ncc2cc(-c3c(Cl)c(OC)cc(OC)c3Cl)c(=O)n(C)c2n1 [Compound I-276] | < 100 | < 0.1 | 101 to 500 | < 100 |  | 
22 | C=CC(=O)NC1CN(c2ccccn2)CC1Nc1ncc2cc(-c3c(Cl)c(OC)cc(OC)c3Cl)c(=O)n(C)c2n1 (stereo not shown) [Compound I-252] | < 100 | < 0.1 |  |  |  | 

Row | SMILES | EC50 (pFGFR4 (Huh7 cells)) [nM] | IC50 (FGFR4-WT) [µM] | GI50 (Huh7 cells; Homo sapiens, Huh-7, 120 hr) [nM] | GI50 (MDA-MB-453 cells; Homo sapiens) [nM] | GI50 (MDA-MB-453 cells) [nM] | GI50 (Huh7 cells; [1]) [nM]
23 | C=CC(=O)NC1CC(=O)CC1Nc1ncc2cc(-c3c(Cl)c(OC)cc(OC)c3Cl)c(=O)n(C)c2n1 (stereo not shown) [Compound I-286] | < 100 | < 0.1 |  |  |  | 
24 | C=CC(=O)N[C@H]1COC[C@H]1Nc1ncc2cc(-c3cc(OC)cc(OC)c3Cl)c(=O)n(C)c2n1 [Compound I-254] |  |  |  |  |  | 101 to 500
25 | C=CC(=O)Nc1c(Nc2ncc3cc(-c4c(Cl)c(OC)cc(OC)c4Cl)c(=O)n(C)c3n2)ccc(F)c1F [Compound I-282] | 101 to 500 | < 0.1 |  |  |  | 
26 | C=CC(=O)Nc1cc(F)c(F)cc1Nc1ncc2cc(-c3c(Cl)c(OC)cc(OC)c3Cl)c(=O)n(C)c2n1 [Compound I-257] | < 100 | < 0.1 | 101 to 500 |  |  | 
27 | C=CC(=O)Nc1ccc(F)c(F)c1Nc1ncc2cc(-c3c(Cl)c(OC)cc(OC)c3Cl)c(=O)n(C)c2n1 [Compound I-285] | < 100 | < 0.1 |  |  | < 100 | < 100
28 | C=CC(=O)N[C@H]1COC[C@H]1Nc1ncc2cc(-c3c(C)c(OC)cc(OC)c3C)c(=O)n(C)c2n1 [Compound I-294] |  |  | 101 to 500 |  |  | 
29 | C=CC(=O)N[C@H]1COC[C@H]1Nc1ncc2cc(-c3c(Cl)c(OC)cc(OC)c3Cl)c(=O)nc-2n1C[C@H]1CCN(C(C)=O)C1 [Compound I-299] | < 100 | < 0.1 |  |  |  | 101 to 500
30 | C=CC(=O)Nc1cc(-c2ccn(C)n2)ccc1Nc1ncc2cc(-c3c(Cl)c(OC)cc(OC)c3Cl)c(=O)n(C)c2n1 [Compound I-267] | < 100 | < 0.1 |  |  |  | 
31 | C=CC(=O)NC1CN(c2ccn(C)n2)CC1Nc1ncc2cc(-c3c(Cl)c(OC)cc(OC)c3Cl)c(=O)n(C)c2n1 (stereo not shown) [Compound I-248] | < 100 | < 0.1 | < 100 |  |  | 
32 | C=CC(=O)NC1CCCCC1Nc1ncc2c(n1)N(CCF)C(=O)N(c1c(Cl)c(OC)cc(OC)c1Cl)C2 (racemic) [Compound I-106] |  | 0.101 to 0.5 |  |  |  | 
33 | C=CC(=O)N[C@H]1COC[C@H]1Nc1ncc2cc(-c3c(Cl)c(OC)cc(OC)c3Cl)c(=O)nc-2n1CC1CCOC1 (stereo partly shown) [Compound I-298] | < 100 | < 0.1 |  |  |  | < 100
34 | C=CC(=O)NC1CN(C)CC1Nc1ncc2c(n1)N(C)C(=O)N(c1c(Cl)c(OC)cc(OC)c1Cl)C2 (racemic) [Compound I-138] |  | 0.101 to 0.5 |  |  |  | 
35 | C=CC(=O)NC1CN(C(C)=O)CC1Nc1ncc2c(n1)N(C)C(=O)N(c1c(Cl)c(OC)cc(OC)c1Cl)C2 (racemic) [Compound I-139] |  | < 0.1 |  |  |  | 
36 | C=CC(=O)N[C@H]1COC[C@H]1Nc1ncc2cc(-c3cc(OC)cc(OC)c3F)c(=O)n(C)c2n1 [Compound I-274] | < 100 | < 0.1 |  |  |  | 
37 | C=CC(=O)N[C@H]1CN(c2cc[nH]n2)C[C@H]1Nc1ncc2cc(-c3c(Cl)c(OC)cc(OC)c3Cl)c(=O)n(C)c2n1 [Compound I-292] | < 100 | < 0.1 | < 100 |  |  | 
38 | C=CC(=O)N[C@H]1COC[C@H]1Nc1ncc2cc(-c3c(Cl)c(OC)cc(OC)c3Cl)c(=O)nc-2n1C1CCOCC1 [Compound I-300] | < 100 | < 0.1 |  |  |  | 
39 | C=CC(=O)N[C@H]1COC[C@H]1Nc1ncc2cc(-c3c(Cl)c(OC)cc(OC)c3Cl)c(=O)n(C)c2n1 [Compound I-241] |  |  |  | < 100 |  | 
40 | C=CC(=O)N[C@H]1COC[C@H]1Nc1ncc2cc(-c3c(Cl)c(OC)cc(OCC)c3Cl)c(=O)n(C)c2n1 [Compound I-291] | < 100 | < 0.1 |  |  |  | < 100
41 | C=CC(=O)NC1CS(=O)(=O)CC1Nc1ncc2cc(-c3c(Cl)c(OC)cc(OC)c3Cl)c(=O)n(C)c2n1 (stereo not shown) [Compound I-256] | < 100 | < 0.1 |  |  |  | 
42 | C=CC(=O)N[C@H]1COC[C@H]1Nc1ncc2cc(-c3c(Cl)c(OC)cc(OC)c3Cl)c(=O)nc-2n1CCF [Compound I-304] | < 100 | < 0.1 |  |  |  | 
43 | C=CC(=O)Nc1ccc(C(F)(F)F)cc1Nc1ncc2cc(-c3c(Cl)c(OC)cc(OC)c3Cl)c(=O)n(C)c2n1 [Compound I-258] | < 100 | < 0.1 |  |  |  | 
44 | C=CC(=O)N[C@H]1COC[C@H]1Nc1ncc2cc(-c3cc(OC)cc(OC)c3Cl)c(=O)n(CC3CCN(C(C)=O)C3)c2n1 (stereo partly shown) [Compound I-308] | < 100 | < 0.1 |  |  |  | 101 to 500
